Measured values published in patent US20170066759A1, “AROMATIC 5-MEMBERED HETEROCYCLIC DERIVATIVE HAVING TRPV4-INHIBITING ACTIVITY” (Shionogi & Co., Ltd., priority 2012, published 2017).

Columns and labels:
[1] = target: T1, human TRPV4 (hTRPV4/CHO cells) (Homo sapiens, UniProt Q9HBA0); experiment: Test Example 4: TRPV4 inhibitory activity (Ki value), 4α-PDD stimulation, Fluo-3 calcium fluorescence (FDSS 3000); type: cell-based; conditions: Test Example 4, 4α-PDD stimulation, read-out: Test 4 Ki
T1 construct: expressed in transfected cells; host or cells: CHO-K1
How it was run: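 hTRPV4/CHO-K1 cells loaded with 5 μmol/L Fluo-3 in HBSS/HEPES pH 7.5 with probenecid; compound (10 μmol/L to 0.5 nmol/L final, 10 points) added before 4α-PDD, fluorescence read 8 min at Ex 480/Em 540 nm. Max−Min signal normalised to 10 μM Ruthenium Red (100%) and no compound (0%); IC50 converted to Ki using 4α-PDD EC50.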

[2] = Test Example 8: Solubility test; type: physicochemical; conditions: fassgf or other biorelevant, kinetic from dmso stock; 1% DMSO addition, artificial intestinal juice pH 6.8, 16 hours at 25° C.
Description: The solubility of a compound of the present invention was determined under 1% DMSO addition conditions. A 10 mmol/L solution of the compound was prepared with DMSO, and 6 μL of the solution of the compound of the present invention was added to 594 μL of an artificial intestinal juice (water and 118 mL of 0.2 mol/L NaOH reagent were added to 250 mL of 0.2 mol/L potassium dihydrogen phosphate reagent to reach 1000 mL) with a pH of 6.8. The mixture was left standing for 16 hours at 25° C., and the mixture was vacuum-filtered. The filtrate was two-fold diluted with methanol/water=1/1 (V/V), and the compound concentration in the filtrate was measured with HPLC or LC/MS/MS by the absolute calibration method.

[3] = Test Example 9: Metabolism stability test; type: in vitro ADME; conditions: human liver microsomes 0.5 mg protein/mL, 30 minutes at 37° C., NADPH, compound concentration 0.5 μmol/L
Description: Metabolism Stability Test
Using a commercially available pooled human hepatic microsomes, a compound of the present invention was reacted for a constant time, a remaining rate was calculated by comparing a reacted sample and an unreacted sample, thereby, a degree of metabolism in liver was assessed.
A reaction was performed (oxidative reaction) at 37° C. for 0 minute or 30 minutes in the presence of 1 mmol/L NADPH in 0.2 mL of a buffer (50 mmol/L Tris-HCl pH 7.4, 150 mmol/L potassium chloride, 10 mmol/L magnesium chloride) containing 0.5 mg protein/mL of human liver microsomes. After the reaction, 50 μL of the reaction mixture was added to 100 μL of a methanol/acetonitrile=1/1 (v/v), mixed and centrifuged at 3000 rpm for 15 minutes. The compound of the present invention in the supernatant was quantified by LC/MS/MS, and a remaining amount of the compound of the present invention after the reaction was calculated, letting a compound amount at 0 minute reaction time to be 100%. Hydrolysis reaction was performed in the absence of NADPH and glucuronidation reaction was in the presence of 5 mmol/L UDP-glucuronic acid in place of NADPH, followed by similar operations.
(Results) Compound concentration: 0.5 μmol/L

T1 sequence (Q9HBA0 whole entry): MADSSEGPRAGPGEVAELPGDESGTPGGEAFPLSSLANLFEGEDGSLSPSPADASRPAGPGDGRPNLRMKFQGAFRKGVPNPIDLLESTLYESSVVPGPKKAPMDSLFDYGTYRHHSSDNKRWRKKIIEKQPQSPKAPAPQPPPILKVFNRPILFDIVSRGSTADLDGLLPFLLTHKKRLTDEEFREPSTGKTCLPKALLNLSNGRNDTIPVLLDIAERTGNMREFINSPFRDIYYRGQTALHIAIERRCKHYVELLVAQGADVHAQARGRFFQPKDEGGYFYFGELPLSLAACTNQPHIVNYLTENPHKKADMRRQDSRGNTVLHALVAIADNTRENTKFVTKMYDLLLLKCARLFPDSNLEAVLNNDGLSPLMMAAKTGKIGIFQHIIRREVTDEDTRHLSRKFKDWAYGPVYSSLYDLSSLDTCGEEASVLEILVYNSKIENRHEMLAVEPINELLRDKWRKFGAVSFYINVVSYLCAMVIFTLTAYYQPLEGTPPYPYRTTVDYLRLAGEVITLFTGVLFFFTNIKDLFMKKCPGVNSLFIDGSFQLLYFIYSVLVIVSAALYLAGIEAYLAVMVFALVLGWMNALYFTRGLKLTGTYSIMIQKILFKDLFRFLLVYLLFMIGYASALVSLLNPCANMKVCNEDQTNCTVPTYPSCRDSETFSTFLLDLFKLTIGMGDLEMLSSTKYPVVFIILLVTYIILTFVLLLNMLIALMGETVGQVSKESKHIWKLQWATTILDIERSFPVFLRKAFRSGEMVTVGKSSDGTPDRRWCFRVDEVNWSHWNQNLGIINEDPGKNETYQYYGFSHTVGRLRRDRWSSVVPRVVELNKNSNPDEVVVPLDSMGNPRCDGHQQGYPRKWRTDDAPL

For `Cc1nc(C)c(-c2csc(NC(=O)Cc3ccc(S(C)(=O)=O)cc3)n2)s1` [Compound I-17], the Ki [1] was 100 to 1000 nM, the solubility at 16 h [2] was greater than 50 µM and the “Metabolism stability: remaining amount of the compound after the reaction” value [3] was 92.2%.
With `Cc1nc(C)c(-c2csc(NC(=O)C3CCC(F)(F)C3)n2)s1` (stereo not drawn) [Compound I-18] the Ki [1] was less than 100 nM, the solubility at 16 h [2] was greater than 50 µM and the “Metabolism stability: remaining amount of the compound after the reaction” value [3] was 86.4%.
